In ChEMBL document CHEMBL4627246, “Pyroglutamide-Based P2X7 Receptor Antagonists Targeting Inflammatory Bowel Disease” (J Med Chem, 2020):

Key:
Format in all cases: cell-based
[1] = tested on: A549; assay: Cytotoxicity against human A549/ATCC cells assessed as effect on cell growth at 10 uM incubated for 48 hrs by sulforhodamine B assay; conditions: a549, 48 h
[2] = tested on: RPMI-8226; assay: Cytotoxicity against human RPMI8226 cells assessed as effect on cell growth at 10 uM incubated for 48 hrs by sulforhodamine B assay; conditions: rpmi-8226, 48 h
[3] = tested on: MOLT-4; assay: Cytotoxicity against human MOLT4 cells assessed as effect on cell growth at 10 uM incubated for 48 hrs by sulforhodamine B assay; conditions: molt-4, 48 h
[4] = tested on: NCI-H23; assay: Cytotoxicity against human NCI-H23 cells assessed as effect on cell growth at 10 uM incubated for 48 hrs by sulforhodamine B assay; conditions: nci-h23, 48 h
[5] = tested on: NCI-H460; assay: Cytotoxicity against human NCI-H460 cells assessed as effect on cell growth at 10 uM incubated for 48 hrs by sulforhodamine B assay; conditions: nci-h460, 48 h
[6] = tested on: NCI-H522; assay: Cytotoxicity against human NCI-H522 cells assessed as effect on cell growth at 10 uM incubated for 48 hrs by sulforhodamine B assay; conditions: nci-h522, 48 h
[7] = tested on: HT-29; assay: Cytotoxicity against human HT-29 cells assessed as effect on cell growth at 10 uM incubated for 48 hrs by sulforhodamine B assay; conditions: ht-29, 48 h
[8] = tested on: KM12; assay: Cytotoxicity against human KM12 cells assessed as effect on cell growth at 10 uM incubated for 48 hrs by sulforhodamine B assay; conditions: km12, 48 h
[9] = tested on: SW-620; assay: Cytotoxicity against human SW620 cells assessed as effect on cell growth at 10 uM incubated for 48 hrs by sulforhodamine B assay; conditions: sw-620, 48 h
[10] = tested on: SF-295; assay: Cytotoxicity against human SF295 cells assessed as effect on cell growth at 10 uM incubated for 48 hrs by sulforhodamine B assay; conditions: sf-295, 48 h
[11] = tested on: SNB-19; assay: Cytotoxicity against human SNB19 cells assessed as effect on cell growth at 10 uM incubated for 48 hrs by sulforhodamine B assay; conditions: snb-19, 48 h
[12] = tested on: SNB-75; assay: Cytotoxicity against human SNB75 cells assessed as effect on cell growth at 10 uM incubated for 48 hrs by sulforhodamine B assay; conditions: snb-75, 48 h
[13] = tested on: LOX IMVI; assay: Cytotoxicity against human LOXIMVI cells assessed as effect on cell growth at 10 uM incubated for 48 hrs by sulforhodamine B assay
[14] = tested on: SK-MEL-2; assay: Cytotoxicity against human SK-MEL-2 cells assessed as effect on cell growth at 10 uM incubated for 48 hrs by sulforhodamine B assay; conditions: sk-mel-2, 48 h
[15] = tested on: IGROV-1; assay: Cytotoxicity against human IGROV1 cells assessed as effect on cell growth at 10 uM incubated for 48 hrs by sulforhodamine B assay; conditions: igrov-1, 48 h
[16] = tested on: OVCAR-4; assay: Cytotoxicity against human OVCAR4 cells assessed as effect on cell growth at 10 uM incubated for 48 hrs by sulforhodamine B assay; conditions: ovcar-4, 48 h
[17] = tested on: OVCAR-8; assay: Cytotoxicity against human OVCAR8 cells assessed as effect on cell growth at 10 uM incubated for 48 hrs by sulforhodamine B assay; conditions: ovcar-8, 48 h
[18] = tested on: SK-OV-3; assay: Cytotoxicity against human SKOV3 cells assessed as effect on cell growth at 10 uM incubated for 48 hrs by sulforhodamine B assay; conditions: sk-ov-3, 48 h
[19] = tested on: BT-549; assay: Cytotoxicity against human BT549 cells assessed as effect on cell growth at 10 uM incubated for 48 hrs by sulforhodamine B assay; conditions: bt-549, 48 h
[20] = tested on: T47D; assay: Cytotoxicity against human T47D cells assessed as effect on cell growth at 10 uM incubated for 48 hrs by sulforhodamine B assay

Measured: Activity

CN(C)/C=C1\C[C@H]2C(=O)N(Cc3ccc(Cl)cc3Cl)C(N(C)C)N2C1=O (stereo not given in full)
Non-Toxic: all assays above

CN(C)C(=O)[C@@H]1CCC(=O)N1
Non-Toxic: all assays above

O=C(NCC1CCCCC1)[C@@H]1CCC(=O)N1c1ccccc1
Non-Toxic: all assays above

O=C(NCc1ccc(Cl)cc1Cl)c1ccccn1
Non-Toxic: all assays above

Cc1ccc(NC(=O)[C@@H]2CCC(=O)N2c2ccccc2)cc1
Non-Toxic: all assays above

CN(C)/C=C1\C[C@@H](C(=O)NCc2ccc(Cl)cc2Cl)N(c2cccs2)C1=O
Non-Toxic: all assays above

CN1C(=O)CC[C@H]1C(=O)NCc1cc(C(F)(F)F)ccc1Cl
Non-Toxic: all assays above

O=C1N[C@H](C(=O)NCc2ccc(Cl)cc2Cl)CO1
Non-Toxic: all assays above
